Experimental findings from ChEMBL document CHEMBL1147197, “Studies on logP, retention time and QSAR of 2-substituted phenylnitronyl nitroxides as free radical scavengers” (Eur J Med Chem, 2007) are described below.

SMILES strings stand for the structures.

The subject of one data set is PC-12. Briefly: Nitric oxide radical scavenging activity in PC12 cells by survival assay. Conditions: Rattus norvegicus, read-out: EC50. The class given is functional, cell-based, Homo sapiens.
Usually EC50 stands for the concentration that produces a half-maximal response. For `CN(C)c1ccc(C2=[N+]([O-])C(C)(C)C(C)(C)N2[O])cc1`, the concentration giving a half-maximal response (EC50) was found to be 9.12 µM.

Consider `CC1(C)N([O])C(c2ccc(Cl)cc2)=[N+]([O-])C1(C)C`, for which the EC50 worked out at 63.1 µM.

As for `CC1(C)N([O])C(c2ccc(Cl)cc2Cl)=[N+]([O-])C1(C)C`, the half-maximal effective concentration (EC50) came out at 42.8 µM.

With `CC1(C)N([O])C(c2ccccc2[N+](=O)[O-])=[N+]([O-])C1(C)C`, the concentration for a half-maximal effect (EC50) worked out at 47.9 µM.

Take `CC1(C)N([O])C(c2ccc(OCC(=O)O)cc2)=[N+]([O-])C1(C)C`: the concentration giving a half-maximal response (EC50) was 91.2 µM.

Take `Cc1ccc(C2=[N+]([O-])C(C)(C)C(C)(C)N2[O])cc1`: the concentration for a half-maximal effect (EC50) worked out at 33.1 µM.

Regarding `COc1ccc(C2=[N+]([O-])C(C)(C)C(C)(C)N2[O])cc1`, the EC50 stood at 30.9 µM.

`COc1ccc(C2=[N+]([O-])C(C)(C)C(C)(C)N2[O])c(OC)c1`: the concentration giving a half-maximal response (EC50) is 9.33 µM.

Regarding `CC1(C)N([O])C(c2ccccc2F)=[N+]([O-])C1(C)C`, the concentration giving a half-maximal response (EC50) was determined as 44.7 µM.

For `COc1ccc(C2=[N+]([O-])C(C)(C)C(C)(C)N2[O])cc1O`, the EC50 turned out to be 27.5 µM.

In the case of `CC1(C)N([O])C(c2ccccc2O)=[N+]([O-])C1(C)C`, the half-maximal effective concentration (EC50) was 44.7 µM.

Staying with this data set, now noted: Rattus norvegicus, read-out: Log EC50 (converted).
Regarding `CN(C)c1ccc(C2=[N+]([O-])C(C)(C)C(C)(C)N2[O])cc1`, the EC50 was 9.12 µM.

`CC1(C)N([O])C(c2ccc(Cl)cc2)=[N+]([O-])C1(C)C`: the EC50 is 63.1 µM.

As for `CC1(C)N([O])C(c2ccc(Cl)cc2Cl)=[N+]([O-])C1(C)C`, the EC50 is 42.7 µM.

With `CC1(C)N([O])C(c2ccccc2[N+](=O)[O-])=[N+]([O-])C1(C)C`, the concentration giving a half-maximal response (EC50) is 47.9 µM.

Turning to `CC1(C)N([O])C(c2ccc(OCC(=O)O)cc2)=[N+]([O-])C1(C)C`, the EC50 is 91.2 µM.

As to `Cc1ccc(C2=[N+]([O-])C(C)(C)C(C)(C)N2[O])cc1`, the concentration for a half-maximal effect (EC50) was 33.1 µM.

For the compound `COc1ccc(C2=[N+]([O-])C(C)(C)C(C)(C)N2[O])cc1`, the EC50 is 30.9 µM.

As for `COc1ccc(C2=[N+]([O-])C(C)(C)C(C)(C)N2[O])c(OC)c1`, the half-maximal effective concentration (EC50) is 9.33 µM.

Turning to `CC1(C)N([O])C(c2ccccc2F)=[N+]([O-])C1(C)C`, the EC50 is 44.7 µM.

Regarding `COc1ccc(C2=[N+]([O-])C(C)(C)C(C)(C)N2[O])cc1O`, the EC50 was 27.5 µM.

Regarding `CC1(C)N([O])C(c2ccccc2O)=[N+]([O-])C1(C)C`, the EC50 is 44.7 µM.

The subject of the next data set is PC-12. Nature of the data set: Hydrogen peroxide radical scavenging activity in PC12 cell by survival assay. It is filed as functional, cell-based, Homo sapiens. Conditions: Rattus norvegicus, read-out: EC50.
In the case of `CN(C)c1ccc(C2=[N+]([O-])C(C)(C)C(C)(C)N2[O])cc1`, the 50% effective concentration (EC50) worked out at 29 µM.

In the case of `CC1(C)N([O])C(c2ccc(Cl)cc2)=[N+]([O-])C1(C)C`, the concentration for a half-maximal effect (EC50) came out at 58.9 µM.

As for `CC1(C)N([O])C(c2ccc(Cl)cc2Cl)=[N+]([O-])C1(C)C`, the concentration giving a half-maximal response (EC50) is 65 µM.

For `CC1(C)N([O])C(c2ccccc2[N+](=O)[O-])=[N+]([O-])C1(C)C`, the concentration for a half-maximal effect (EC50) was 60.7 µM.

`CC1(C)N([O])C(c2ccc(OCC(=O)O)cc2)=[N+]([O-])C1(C)C`: the concentration giving a half-maximal response (EC50) worked out at 74.6 µM.

Consider `Cc1ccc(C2=[N+]([O-])C(C)(C)C(C)(C)N2[O])cc1`, for which the EC50 came out at 38.3 µM.

In the case of `COc1ccc(C2=[N+]([O-])C(C)(C)C(C)(C)N2[O])cc1`, the EC50 came to 42.9 µM.

For `COc1ccc(C2=[N+]([O-])C(C)(C)C(C)(C)N2[O])c(OC)c1`, the EC50 came to 25.3 µM.

For the compound `CC1(C)N([O])C(c2ccccc2F)=[N+]([O-])C1(C)C`, the concentration for a half-maximal effect (EC50) turned out to be 76.4 µM.

As for `COc1ccc(C2=[N+]([O-])C(C)(C)C(C)(C)N2[O])cc1O`, the EC50 is 40.1 µM.

`CC1(C)N([O])C(c2ccccc2O)=[N+]([O-])C1(C)C`: the EC50 is 52.8 µM.

Staying with this data set, now noted: Rattus norvegicus, read-out: Log EC50 (converted).
For `CN(C)c1ccc(C2=[N+]([O-])C(C)(C)C(C)(C)N2[O])cc1`, the EC50 was 28.8 µM.

Regarding `CC1(C)N([O])C(c2ccc(Cl)cc2)=[N+]([O-])C1(C)C`, the EC50 is 58.9 µM.

With `CC1(C)N([O])C(c2ccc(Cl)cc2Cl)=[N+]([O-])C1(C)C`, the EC50 is 64.6 µM.

Regarding `CC1(C)N([O])C(c2ccccc2[N+](=O)[O-])=[N+]([O-])C1(C)C`, the EC50 was 60.3 µM.

`CC1(C)N([O])C(c2ccc(OCC(=O)O)cc2)=[N+]([O-])C1(C)C`: the EC50 is 74.1 µM.

Take `Cc1ccc(C2=[N+]([O-])C(C)(C)C(C)(C)N2[O])cc1`: the EC50 was 38 µM.

For `COc1ccc(C2=[N+]([O-])C(C)(C)C(C)(C)N2[O])cc1`, the EC50 is 42.7 µM.

On to `COc1ccc(C2=[N+]([O-])C(C)(C)C(C)(C)N2[O])c(OC)c1`, for which the EC50 was 25.1 µM.

For the compound `CC1(C)N([O])C(c2ccccc2F)=[N+]([O-])C1(C)C`, the EC50 was 75.9 µM.

Take `COc1ccc(C2=[N+]([O-])C(C)(C)C(C)(C)N2[O])cc1O`: the EC50 was 39.8 µM.

Turning to `CC1(C)N([O])C(c2ccccc2O)=[N+]([O-])C1(C)C`, the 50% effective concentration (EC50) is 52.5 µM.

The test system of the next data set is PC-12. Nature of the data set: Hydroxyl radical scavenging activity in PC12 cell by survival assay. To be noted: Rattus norvegicus, read-out: EC50. The class given is functional, cell-based, Homo sapiens.
As to `CN(C)c1ccc(C2=[N+]([O-])C(C)(C)C(C)(C)N2[O])cc1`, the 50% effective concentration (EC50) is 31.1 µM.

Consider `CC1(C)N([O])C(c2ccc(Cl)cc2)=[N+]([O-])C1(C)C`, for which the half-maximal effective concentration (EC50) is 74.6 µM.

With `CC1(C)N([O])C(c2ccc(Cl)cc2Cl)=[N+]([O-])C1(C)C`, the EC50 was 78.1 µM.

Consider `CC1(C)N([O])C(c2ccccc2[N+](=O)[O-])=[N+]([O-])C1(C)C`, for which the EC50 is 74.6 µM.

With `CC1(C)N([O])C(c2ccc(OCC(=O)O)cc2)=[N+]([O-])C1(C)C`, the 50% effective concentration (EC50) amounted to 101 µM.

As for `Cc1ccc(C2=[N+]([O-])C(C)(C)C(C)(C)N2[O])cc1`, the EC50 amounted to 65 µM.

With `COc1ccc(C2=[N+]([O-])C(C)(C)C(C)(C)N2[O])cc1`, the EC50 amounted to 59.3 µM.

With `COc1ccc(C2=[N+]([O-])C(C)(C)C(C)(C)N2[O])c(OC)c1`, the 50% effective concentration (EC50) is 27.7 µM.

With `CC1(C)N([O])C(c2ccccc2F)=[N+]([O-])C1(C)C`, the EC50 was found to be 85.7 µM.

Consider `COc1ccc(C2=[N+]([O-])C(C)(C)C(C)(C)N2[O])cc1O`, for which the half-maximal effective concentration (EC50) came to 54.1 µM.

As for `CC1(C)N([O])C(c2ccccc2O)=[N+]([O-])C1(C)C`, the EC50 stood at 55.3 µM.

Staying with this data set, now noted: Rattus norvegicus, read-out: Log EC50 (converted).
As for `CN(C)c1ccc(C2=[N+]([O-])C(C)(C)C(C)(C)N2[O])cc1`, the EC50 was 30.9 µM.

Turning to `CC1(C)N([O])C(c2ccc(Cl)cc2)=[N+]([O-])C1(C)C`, the 50% effective concentration (EC50) is 74.1 µM.

Take `CC1(C)N([O])C(c2ccc(Cl)cc2Cl)=[N+]([O-])C1(C)C`: the EC50 was 77.6 µM.

Take `CC1(C)N([O])C(c2ccccc2[N+](=O)[O-])=[N+]([O-])C1(C)C`: the concentration giving a half-maximal response (EC50) is 74.1 µM.

In the case of `CC1(C)N([O])C(c2ccc(OCC(=O)O)cc2)=[N+]([O-])C1(C)C`, the EC50 was 100 µM.

With `Cc1ccc(C2=[N+]([O-])C(C)(C)C(C)(C)N2[O])cc1`, the concentration for a half-maximal effect (EC50) is 64.6 µM.

As to `COc1ccc(C2=[N+]([O-])C(C)(C)C(C)(C)N2[O])cc1`, the EC50 is 58.9 µM.

For the compound `COc1ccc(C2=[N+]([O-])C(C)(C)C(C)(C)N2[O])c(OC)c1`, the concentration for a half-maximal effect (EC50) was 27.5 µM.

For `CC1(C)N([O])C(c2ccccc2F)=[N+]([O-])C1(C)C`, the EC50 is 85.1 µM.

Regarding `COc1ccc(C2=[N+]([O-])C(C)(C)C(C)(C)N2[O])cc1O`, the EC50 is 53.7 µM.

For `CC1(C)N([O])C(c2ccccc2O)=[N+]([O-])C1(C)C`, the half-maximal effective concentration (EC50) is 55 µM.

Tested on in another data set: not listed separately
Briefly: Partition coefficient, log P of the compound. It is filed as physicochemical. Conditions: octanol/water.
In general, logP refers to a log measure of how a compound divides between an organic and an aqueous phase. As for `CN(C)c1ccc(C2=[N+]([O-])C(C)(C)C(C)(C)N2[O])cc1`, the logP was found to be 2.02.

Turning to `CC1(C)N([O])C(c2ccc(Cl)cc2)=[N+]([O-])C1(C)C`, the logP turned out to be 2.33.

On to `CC1(C)N([O])C(c2ccc(Cl)cc2Cl)=[N+]([O-])C1(C)C`, for which the lipophilicity (logP) was determined as 1.93.

The compound `CC1(C)N([O])C(c2ccccc2[N+](=O)[O-])=[N+]([O-])C1(C)C` gave a logP of 0.909.

In turn, `CC1(C)N([O])C(c2ccc(OCC(=O)O)cc2)=[N+]([O-])C1(C)C` yielded a log partition coefficient (logP) of -0.518.

In turn, `Cc1ccc(C2=[N+]([O-])C(C)(C)C(C)(C)N2[O])cc1` displayed a logP of 1.9.

Turning to `COc1ccc(C2=[N+]([O-])C(C)(C)C(C)(C)N2[O])cc1`, the logP came out at 1.62.

Regarding `COc1ccc(C2=[N+]([O-])C(C)(C)C(C)(C)N2[O])c(OC)c1`, the lipophilicity (logP) amounted to 0.77.

The compound `CC1(C)N([O])C(c2ccccc2F)=[N+]([O-])C1(C)C` showed a lipophilicity (logP) of 0.822.

`COc1ccc(C2=[N+]([O-])C(C)(C)C(C)(C)N2[O])cc1O`: the logP is 0.918.

For `CC1(C)N([O])C(c2ccccc2O)=[N+]([O-])C1(C)C`, the lipophilicity (logP) worked out at 1.17.

Tested on in the next data set: not listed separately
Nature of the data set: Retention time, log K of the compound.
Details: not given
It is filed as ADME.
With `CN(C)c1ccc(C2=[N+]([O-])C(C)(C)C(C)(C)N2[O])cc1`, the “log K” value was determined as 1.328.

Turning to `CC1(C)N([O])C(c2ccc(Cl)cc2)=[N+]([O-])C1(C)C`, the “log K” value turned out to be 1.6.

In the case of `CC1(C)N([O])C(c2ccc(Cl)cc2Cl)=[N+]([O-])C1(C)C`, the “log K” value was determined as 1.347.

Take `CC1(C)N([O])C(c2ccccc2[N+](=O)[O-])=[N+]([O-])C1(C)C`: the “log K” value is given as 0.598.

For the compound `CC1(C)N([O])C(c2ccc(OCC(=O)O)cc2)=[N+]([O-])C1(C)C`, the “log K” value is recorded as -0.372.

As for `Cc1ccc(C2=[N+]([O-])C(C)(C)C(C)(C)N2[O])cc1`, the “log K” value came out at 1.309.

With `COc1ccc(C2=[N+]([O-])C(C)(C)C(C)(C)N2[O])cc1`, the “log K” value came out at 1.101.

Take `COc1ccc(C2=[N+]([O-])C(C)(C)C(C)(C)N2[O])c(OC)c1`: the “log K” value stood at 0.62.

Consider `CC1(C)N([O])C(c2ccccc2F)=[N+]([O-])C1(C)C`, for which the “log K” value amounted to 0.577.

Take `COc1ccc(C2=[N+]([O-])C(C)(C)C(C)(C)N2[O])cc1O`: the “log K” value was 0.534.

On to `CC1(C)N([O])C(c2ccccc2O)=[N+]([O-])C1(C)C`, for which the “log K” value is 0.729.
